Measured values as given in US7504517B2, “Kv1.5 potassium channel inhibitors” (Wyeth, priority 2006, dated 2009).
pIC50: −log10 of the molar value.

Key:
[1] = target: T1, Kv1.5 (Homo sapiens, UniProt P22460); assay: Kv1.5 Patch Clamp EP; format: cell-based; conditions: whole cell patch clamp; for inhibition at 1 µM: single point, Kv1.5 stably over expressed in HEK or LTK- cells; for pIC50: HEK or LTK- cells, at least four concentrations, n=3
T1 construct: expressed in transfected cells; host or cells: HEK or LTK- cells
T1 sequence (P22460 whole entry): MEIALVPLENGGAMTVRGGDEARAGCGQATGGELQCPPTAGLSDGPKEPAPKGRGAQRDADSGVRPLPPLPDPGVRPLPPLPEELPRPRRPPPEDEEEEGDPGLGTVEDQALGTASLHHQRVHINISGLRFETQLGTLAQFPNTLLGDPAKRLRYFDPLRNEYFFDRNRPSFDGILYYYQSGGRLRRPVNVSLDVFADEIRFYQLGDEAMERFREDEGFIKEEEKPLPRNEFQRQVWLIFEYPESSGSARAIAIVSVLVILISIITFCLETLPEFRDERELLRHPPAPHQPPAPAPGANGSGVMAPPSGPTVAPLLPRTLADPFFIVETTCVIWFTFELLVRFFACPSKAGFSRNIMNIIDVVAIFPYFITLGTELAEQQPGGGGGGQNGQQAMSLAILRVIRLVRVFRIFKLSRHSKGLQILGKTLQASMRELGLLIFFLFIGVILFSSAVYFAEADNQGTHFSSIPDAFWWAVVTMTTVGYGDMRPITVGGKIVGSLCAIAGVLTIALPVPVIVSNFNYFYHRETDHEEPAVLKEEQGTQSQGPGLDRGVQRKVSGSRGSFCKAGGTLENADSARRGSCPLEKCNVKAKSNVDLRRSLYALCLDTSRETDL
Method: The external solution is standard Tyrodes solution. […] Inhibition was measured at the end of the 1 second pulses and expressed relative to controls. Initial Kv1.5 inhibition is estimated by single point determinations done at 1 μM.

[2] = test system: L-type calcium channels; assay: FLIPR L-Type Calcium Channel Assay; format: cell-based, murine; conditions: HL-1 cells expressing endogenous L-type calcium channels; calcium influx after 20 mM KCl; read-out: L-type Ca^2+ IC50
Method: 50 μL per well test compounds are added to the plates and further incubated for 15 min. in a 5% CO2 37° C. incubator. All final solutions contain the anion exchange inhibitor, probenecid (2.5 mM). The 96-well plates are then placed in the center position of the FLIPR 1 (Fluorometric Imaging Plate Reader, Molecular Devices Corporation). Cell monolayers in each well are simultaneously illuminated at 488 nm with an Argon ion laser, and fluorescence emission is monitored using a 510-570 nm bandpass filter and a cooled CCD camera. To depolarize the plasma membrane and activate L-type calcium channels, 50 μL per well of 20 mM KCl (final concentration) are dispensed simultaneously to all 96 wells using the FLIPR's automatic 96-well pipettor. Fluorescence measurements are captured for 5 min. following KCl addition. Calcium influx, expressed as % control, is calculated for each concentration of test compound and concentration-response curves and IC50 values are generated using GraphPad Prism 4.0.

[3] = target: HERG (Homo sapiens, UniProt Q12809); assay: HERG Patch Clamp EP; conditions: for inhibition at 10 µM: human, HEK cells stably overexpressing HERG
Chain of HERG (Q12809 whole entry): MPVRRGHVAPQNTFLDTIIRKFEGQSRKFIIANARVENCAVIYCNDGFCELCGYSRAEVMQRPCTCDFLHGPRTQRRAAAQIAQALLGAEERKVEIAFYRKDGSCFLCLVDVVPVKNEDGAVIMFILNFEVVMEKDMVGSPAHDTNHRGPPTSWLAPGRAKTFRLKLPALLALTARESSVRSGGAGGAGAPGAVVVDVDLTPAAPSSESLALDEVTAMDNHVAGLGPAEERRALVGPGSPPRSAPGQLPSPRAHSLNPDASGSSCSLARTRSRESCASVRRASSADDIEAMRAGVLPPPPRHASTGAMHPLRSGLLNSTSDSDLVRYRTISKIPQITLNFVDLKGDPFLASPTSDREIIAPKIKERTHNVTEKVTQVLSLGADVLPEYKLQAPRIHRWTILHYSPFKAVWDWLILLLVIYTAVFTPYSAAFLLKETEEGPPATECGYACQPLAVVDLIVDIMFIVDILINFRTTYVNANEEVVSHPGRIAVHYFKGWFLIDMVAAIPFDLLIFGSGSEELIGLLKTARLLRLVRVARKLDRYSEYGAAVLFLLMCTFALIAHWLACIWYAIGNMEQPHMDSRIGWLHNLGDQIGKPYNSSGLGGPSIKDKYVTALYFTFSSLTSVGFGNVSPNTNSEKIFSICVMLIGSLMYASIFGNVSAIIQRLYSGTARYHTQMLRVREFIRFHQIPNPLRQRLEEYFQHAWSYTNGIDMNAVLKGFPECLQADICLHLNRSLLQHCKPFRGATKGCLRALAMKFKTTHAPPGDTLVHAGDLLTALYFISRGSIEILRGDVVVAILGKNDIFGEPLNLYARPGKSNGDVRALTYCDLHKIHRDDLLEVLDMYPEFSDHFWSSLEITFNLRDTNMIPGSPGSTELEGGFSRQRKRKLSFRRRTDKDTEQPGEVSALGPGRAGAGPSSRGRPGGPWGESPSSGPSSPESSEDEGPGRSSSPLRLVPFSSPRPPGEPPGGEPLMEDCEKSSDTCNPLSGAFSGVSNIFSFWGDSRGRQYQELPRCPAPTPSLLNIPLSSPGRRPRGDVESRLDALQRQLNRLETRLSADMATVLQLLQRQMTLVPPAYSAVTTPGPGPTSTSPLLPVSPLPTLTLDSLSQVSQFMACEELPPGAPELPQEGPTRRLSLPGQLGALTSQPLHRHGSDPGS
Method: HERG currents are recorded by the whole cell mode of patch clamp electrophysiology as described by Hamill et al.^3 HERG is stably over expressed in HEK cells. Microelectrodes are pulled from borosilicate glass (TW150) and heat polished (tip resistance, 1.5 to 3 megaohms). The external solution is standard Tyrodes solution. The internal (microelectrode) solution contained: 110 mM KCl, 5 mM K2ATP, 5 mM K4BAPTA, 1 mM MgCl2 and 10 mM HEPES, adjusted to pH 7.2 with KOH. […] Compounds are prepared as 10-20 mM DMSO stocks and diluted to appropriate test concentrations. […] Inhibition of HERG is measured at the peak of the tail currents and expressed relative to controls. Initial HERG activity is estimated by single point determinations run at 10 μM. Concentration response curves are generated for appropriate compounds utilizing at least four concentrations and an n=3. Curve fitting and IC50 estimating are done using Graphpad software (Ver. 4). • 1.

## COc1ccc(CCN2C(=O)N(NS(=O)(=O)CC(=O)NC3CC3)CC2c2ccc(C3CC3)cc2)cc1 (stereo not drawn) [Compound 51, 1-[[2-(Cyclopropylamino)-2-oxoethyl]sulfonylamino]-3-[2-(4-methoxyphenyl)ethyl]-4-(4-cyclopropylphenyl)-2-imidazolidinone]
[1]
  inhibition at 1 µM: 87%
[2]
  pIC50: 4.68
[3]
  inhibition at 10 µM: 20%

## COc1ccc(CCN2C(=O)N(NS(C)(=O)=O)CC2c2ccc3c(c2)OC(C)(C)O3)cc1 (stereo not drawn) [Compound 18, 1-(Methylsulfonylamino)-3-[2-(4-methoxyphenyl)ethyl]-4-(2,2-dimethylbenzo-[1,3]dioxol-5-yl)-2-imidazolidinone]
[1]
  inhibition at 1 µM: 59%
[2]
  pIC50: 4.62
[3]
  inhibition at 10 µM: 12%

## COc1ccc(CCN2C(=O)N(NS(C)(=O)=O)CC2c2ccc(C)c(C)c2)cc1 (stereo not drawn) [Compound 7, 1-(Methylsulfonylamino)-3-[2-(4-methoxyphenyl)ethyl]-4-(3,4-dimethylphenyl)-2-imidazolidinone]
[1]
  inhibition at 1 µM: 92%
  pIC50: 6.63
[2]
  pIC50: 4.37
[3]
  inhibition at 10 µM: 16%

## COCCN(CCOC)C(=O)CS(=O)(=O)NN1CC(c2ccc(C3CC3)cc2)N(CCc2ccc(OC)cc2)C1=O (stereo not drawn) [Compound 60, 1-[[2-[(Bis(methoxyethyl)amino)]-2-oxoethyl]sulfonylamino]-3-[2-(4-methoxy-phenyl)ethyl]-4-(4-cyclopropylphenyl)-2-imidazolidinone]
[1]
  inhibition at 1 µM: 77%
  pIC50: 6.34
[2]
  pIC50: 4.97
[3]
  pIC50: 5.13
  inhibition at 10 µM: 44%

## COc1ccc(CCCN2C(=O)N(NS(C)(=O)=O)CC2c2ccc(C3CC3)cc2)cc1 (stereo not drawn) [Compound 48, 1-(Methylsulfonylamino)-3-[3-(4-methoxyphenyl)propyl]-4-[(4-cyclopropyl)-phenyl]-2-imidazolidinone]
[1]
  inhibition at 1 µM: 96%
  pIC50: 6.64
[2]
  pIC50: 5.05
[3]
  pIC50: 5.44
  inhibition at 10 µM: 70%

## COc1ccc(CCN2C(=O)N(NS(N)(=O)=O)CC2c2ccc(C3CC3)cc2)cc1 (stereo not drawn) [Compound 10, 1-(Aminosulfonylamino)-3-[2-(4-methoxyphenyl)ethyl]-4-[(4-cyclopropyl)-phenyl]-2-imidazolidinone]
[1]
  inhibition at 1 µM: 89%
  pIC50: 6.62
[2]
  pIC50: 4.66
[3]
  inhibition at 10 µM: 57%

## COc1ccc(CCN2C(=O)N(NS(C)(=O)=O)C[C@@H]2c2ccc(OC(F)F)cc2)cc1 [Compound 171, N-{(4S)-4-[4-(difluoromethoxy)phenyl]-3-[2-(4-methoxyphenyl)ethyl]-2-oxoimidazolidin-1-yl}methanesulfonamide]
[1]
  inhibition at 1 µM: 71%
  pIC50: 6.27
[2]
  pIC50: 4.52
[3]
  pIC50: 5.24
  inhibition at 10 µM: 55%

## COc1ccc(CCN2C(=O)N(NS(=O)(=O)CF)CC2c2ccc3c(c2)OCCO3)cc1 (stereo not drawn) [Compound 37, 1-(Fluoromethylsulfonylamino)-3-[2-(4-methoxyphenyl)ethyl]-4-[(2,3dihydro-benzo[b][1,4]dioxin-6-yl)]-2-imidazolidinone]
[1]
  inhibition at 1 µM: 87%
[2]
  pIC50: 4.52
[3]
  inhibition at 10 µM: 6%

## COc1ccc(CCN2C(=O)N(NS(C)(=O)=O)CC2Cc2ccc(C(C)(C)C)cc2)cc1 (stereo not drawn) [Compound 11, 1-(Methylsulfonylamino)-3-[2-(4-methoxyphenyl)ethyl]-4-[(4-tert-butyl)benzyl]-2-imidazolidinone]
[1]
  inhibition at 1 µM: 95%
[2]
  pIC50: 4.89
[3]
  inhibition at 10 µM: 45%

## COc1ccc(CCN2C(=O)N(NS(C)(=O)=O)CC2c2ccc(OC(F)F)cc2)cc1 (stereo not drawn) [Compound 26, 1-[(Methylsulfonyl)amino]-3-[2-(4-methoxyphenyl)ethyl]-4-(4-difluoro-methoxyphenyl)-2-imidazolidinone]
[1]
  inhibition at 1 µM: 66%
  pIC50: 6.15
[2]
  pIC50: 4.76
[3]
  pIC50: 5.39
  inhibition at 10 µM: 76%

## COc1ccc(C2CN(NS(C)(=O)=O)C(=O)N2CCc2ccc(OC(F)F)cc2)cc1 (stereo not drawn) [Compound 142, N-[3-{2-[4-(difluoromethoxy)phenyl]ethyl}-4-(4-methoxyphenyl)-2-oxoimidazolidin-1-yl]methanesulfonamide]
[1]
  inhibition at 1 µM: 40%
[3]
  inhibition at 10 µM: 91%

## COc1ccc(CCN2C(=O)N(NS(C)(=O)=O)CC2c2ccc3c(c2)OCCO3)cc1 (stereo not drawn) [Compound 17, 1-(Methylsulfonylamino)-3-[2-(4-methoxyphenyl)ethyl]-4-[(2,3-dihydro-benzo[1,4]dioxin-6-yl)]-2-imidazolidinone]
[1]
  inhibition at 1 µM: 89%
[2]
  pIC50: 4.40
[3]
  inhibition at 10 µM: 22%

## COc1ccc(CCN2C(=O)N(NS(=O)(=O)CF)CC2c2ccc(C(C)(C)C)cc2)cc1 (stereo not drawn) [Compound 36, 1-(Fluoromethylsulfonylamino)-3-[2-(4-methoxyphenyl)ethyl]-4-(4-tert-butyl-phenyl)-2-imidazolidinone]
[1]
  inhibition at 1 µM: 85%
[2]
  pIC50: 4.85
[3]
  inhibition at 10 µM: 50%

## COc1ccc(CCN2C(=O)N(NCc3cccnc3)CC2c2ccc(C)c(C)c2)cc1 (stereo not drawn) [Compound 94, 1-[(Pyridin-3-ylmethyl)amino]-3-[2-(4-methoxyphenyl)ethyl]-4-(3,4-dimethylphenyl)-2-imidazolidinone]
[1]
  inhibition at 1 µM: 67%
[2]
  pIC50: 4.89
[3]
  inhibition at 10 µM: 35%

## COc1ccc(CCN2C(=O)N(NS(C)(=O)=O)C[C@@H]2c2ccc(C(C)(C)C)cc2)cc1 [Compound 173, N-{(4S)-4-(4-tert-butylphenyl)-3-[2-(4-methoxyphenyl)ethyl]-2-oxoimidazolidin-1-yl}methanesulfonamide]
[1]
  inhibition at 1 µM: 94%
[2]
  pIC50: 4.84
[3]
  inhibition at 10 µM: 48%

## COc1ccc(CCN2C(=O)N(NS(C)(=O)=O)C[C@H]2c2ccc(C(C)(C)C)cc2)cc1 [Compound 172, N-{(4R)-4-(4-tert-butylphenyl)-3-[2-(4-methoxyphenyl)ethyl]-2-oxoimidazolidin-1-yl}methanesulfonamide]
[1]
  inhibition at 1 µM: 55%
[2]
  pIC50: 5.01
[3]
  inhibition at 10 µM: 51%

## COc1ccc(CCN2C(=O)N(NS(=O)(=O)Cc3cccnc3)CC2c2ccc(C)cc2)cc1 (stereo not drawn) [Compound 65, 1-[(Pyridin-3-yl)methylsulfonyl]amino-3-[(4-methoxyphenyl)ethyl]-4-(4-methylphenyl)-2-imidazolidinone]
[1]
  inhibition at 1 µM: 88%
[2]
  pIC50: 4.51
[3]
  inhibition at 10 µM: 38%

## COc1ccc(CCCN2C(=O)N(NS(C)(=O)=O)CC2c2ccc(OC)cc2)cc1 (stereo not drawn) [Compound 49, 1-(Methylsulfonylamino)-3-[3-(4-methoxyphenyl)propyl]-4-[(4-methoxy)-phenyl]-2-imidazolidinone]
[1]
  inhibition at 1 µM: 76%
  pIC50: 6.33
[2]
  pIC50: 4.64
[3]
  pIC50: 4.94
  inhibition at 10 µM: 25%

## CCC1(CC)CN(NS(C)(=O)=O)C(=O)N1CCc1ccc(OC)cc1 [Compound 111, N-{4,4-diethyl-3-[2-(4-methoxyphenyl)ethyl]-2-oxoimidazolidin-1-yl}methanesulfonamide]
[1]
  inhibition at 1 µM: 9%
[3]
  inhibition at 10 µM: 33%

## COc1ccc(CCN2C(=O)N(NS(C)(=O)=O)CC2C2CCCCC2)cc1 (stereo not drawn) [Compound 145, N-{4-cyclohexyl-3-[2-(4-methoxyphenyl)ethyl]-2-oxoimidazolidin-1-yl}methanesulfonamide]
[1]
  inhibition at 1 µM: 16%
[3]
  inhibition at 10 µM: 11%
